What all share (type): biochemical
One assay has as its target T1, TrkA (Homo sapiens, UniProt P04629).
T1 construct: purchased Invitrogen
The assay can be described thus: HTRF KinEASE kinase assay, TrkA enzyme. To be noted: recombinant Human TRK enzyme, NTRK1 4 nM, read-out: TrkA Enz (nM), Trk inhibition activity expressed as IC50. Here is the method:
(§1) To determine the IC50 of small molecule compounds for the Human TRK receptors, HTRF® KinEASE™ kinase kits from Cisbio were used. Assays were carried out in low volume, black 384-well plates.
(§2) Recombinant Human TRK enzymes (Invitrogen) were incubated in the presence or absence of the compound (11-point dose response with FAC as 10 μM) for 30 minutes at 23° C. Kinase reaction was started by addition of ATP to a mixture containing the enzyme (NTRK1-4 nM, NTRK2-1 nM, NTRK3-10 nM) and substrate (1 μM). Kinase reaction was allowed to carry on for 10 to 45 minutes at 23° C. after which it was stopped by addition of the detection mix (supplied by vendor) containing EDTA, TK-Ab-labelled with Eu^3+-cryptate (1:200 dilutions) and Streptavidin-XL665 (250 nM). Assay plates were incubated in this detection mix for 60 minutes at 23° C. The resulting TR-FRET signal, calculated as the fluorescence ratio at 665/620 nm, was read on an Envision and was proportional to the level of phosphorylation of the peptide in the presence or absence of the compound. The uniformity of the plates were assured with Z′ value [1-{3*(SDHPE+SDZPE)/(ZPE-HPE)}]. The percent (%) effect i.e. Inhibition of compound was calculated in comparison to the signal in the positive (HPE) and negative control (ZPE) wells within each assay plate. The endpoint value % Inhibition for the Standard compound was evaluated in each experiment as a quality control measure. IC50 was determined by plotting compound inhibition at respective dose in Graphpad prism5 using four parameter logistic curve fit.
On the technique in general: TR-FRET usually uses a lanthanide donor and a delayed reading to cut background.

The next assay has as its target T2, TrkB (Homo sapiens, UniProt Q16620).
T2 construct: purchased Invitrogen
The assay can be described thus: HTRF KinEASE kinase assay, TrkB enzyme. The following applies: recombinant Human TRK enzyme, NTRK2 1 nM, read-out: TrkB Enz (nM), Trk inhibition activity expressed as IC50. How it is done: as §1, §2

In a further assay the target is T3, TrkC (Homo sapiens, UniProt Q16288).
T3 construct: purchased Invitrogen
The assay can be described thus: HTRF KinEASE kinase assay, TrkC enzyme. To be noted: recombinant Human TRK enzyme, NTRK3 10 nM, read-out: TrkC Enz (nM), Trk inhibition activity expressed as IC50. Here is the method: as §1, §2

SMILES strings stand for the structures.

T3 sequence (Q16288 32-839): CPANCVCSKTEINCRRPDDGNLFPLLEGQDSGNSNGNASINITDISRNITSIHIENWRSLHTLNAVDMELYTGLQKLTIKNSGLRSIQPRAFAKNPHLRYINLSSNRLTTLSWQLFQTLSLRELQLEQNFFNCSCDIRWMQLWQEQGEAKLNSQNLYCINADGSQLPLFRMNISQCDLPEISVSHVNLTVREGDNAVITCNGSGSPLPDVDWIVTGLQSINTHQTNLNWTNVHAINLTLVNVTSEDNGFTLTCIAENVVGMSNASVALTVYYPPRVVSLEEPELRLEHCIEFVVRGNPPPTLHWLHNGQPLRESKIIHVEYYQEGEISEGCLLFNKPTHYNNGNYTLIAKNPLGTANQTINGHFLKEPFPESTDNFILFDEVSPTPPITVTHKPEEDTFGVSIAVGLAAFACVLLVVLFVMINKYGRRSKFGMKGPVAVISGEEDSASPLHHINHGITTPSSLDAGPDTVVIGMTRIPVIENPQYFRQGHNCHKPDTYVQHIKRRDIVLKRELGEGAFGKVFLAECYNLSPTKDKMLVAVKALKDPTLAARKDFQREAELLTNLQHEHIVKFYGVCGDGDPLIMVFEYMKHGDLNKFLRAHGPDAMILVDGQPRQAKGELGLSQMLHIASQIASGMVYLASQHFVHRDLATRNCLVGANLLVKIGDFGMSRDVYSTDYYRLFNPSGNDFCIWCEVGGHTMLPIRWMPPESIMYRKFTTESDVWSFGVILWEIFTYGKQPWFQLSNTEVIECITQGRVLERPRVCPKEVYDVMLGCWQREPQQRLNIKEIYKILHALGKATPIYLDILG
T2 sequence (Q16620 32-822): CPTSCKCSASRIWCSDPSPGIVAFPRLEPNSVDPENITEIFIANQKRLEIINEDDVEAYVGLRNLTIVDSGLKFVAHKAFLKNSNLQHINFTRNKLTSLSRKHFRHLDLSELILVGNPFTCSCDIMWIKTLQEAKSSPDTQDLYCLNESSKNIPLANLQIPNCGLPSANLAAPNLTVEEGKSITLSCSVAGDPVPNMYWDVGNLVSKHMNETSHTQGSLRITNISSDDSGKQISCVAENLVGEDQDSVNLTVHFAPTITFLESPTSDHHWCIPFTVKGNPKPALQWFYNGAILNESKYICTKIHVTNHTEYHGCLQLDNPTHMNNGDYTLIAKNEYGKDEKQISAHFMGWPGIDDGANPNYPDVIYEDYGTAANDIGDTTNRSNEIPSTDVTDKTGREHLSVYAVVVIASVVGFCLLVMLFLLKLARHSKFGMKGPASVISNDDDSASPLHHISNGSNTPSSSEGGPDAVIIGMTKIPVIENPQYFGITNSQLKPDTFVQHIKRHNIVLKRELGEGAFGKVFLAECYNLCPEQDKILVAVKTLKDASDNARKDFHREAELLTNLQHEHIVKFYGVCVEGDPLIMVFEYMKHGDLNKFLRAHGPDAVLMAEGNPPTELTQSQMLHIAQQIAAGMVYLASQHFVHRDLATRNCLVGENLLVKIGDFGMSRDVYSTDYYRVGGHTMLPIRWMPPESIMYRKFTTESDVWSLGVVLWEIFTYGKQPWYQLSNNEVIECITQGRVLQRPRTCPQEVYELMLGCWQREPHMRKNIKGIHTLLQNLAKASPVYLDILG
T1 sequence (P04629 33-796): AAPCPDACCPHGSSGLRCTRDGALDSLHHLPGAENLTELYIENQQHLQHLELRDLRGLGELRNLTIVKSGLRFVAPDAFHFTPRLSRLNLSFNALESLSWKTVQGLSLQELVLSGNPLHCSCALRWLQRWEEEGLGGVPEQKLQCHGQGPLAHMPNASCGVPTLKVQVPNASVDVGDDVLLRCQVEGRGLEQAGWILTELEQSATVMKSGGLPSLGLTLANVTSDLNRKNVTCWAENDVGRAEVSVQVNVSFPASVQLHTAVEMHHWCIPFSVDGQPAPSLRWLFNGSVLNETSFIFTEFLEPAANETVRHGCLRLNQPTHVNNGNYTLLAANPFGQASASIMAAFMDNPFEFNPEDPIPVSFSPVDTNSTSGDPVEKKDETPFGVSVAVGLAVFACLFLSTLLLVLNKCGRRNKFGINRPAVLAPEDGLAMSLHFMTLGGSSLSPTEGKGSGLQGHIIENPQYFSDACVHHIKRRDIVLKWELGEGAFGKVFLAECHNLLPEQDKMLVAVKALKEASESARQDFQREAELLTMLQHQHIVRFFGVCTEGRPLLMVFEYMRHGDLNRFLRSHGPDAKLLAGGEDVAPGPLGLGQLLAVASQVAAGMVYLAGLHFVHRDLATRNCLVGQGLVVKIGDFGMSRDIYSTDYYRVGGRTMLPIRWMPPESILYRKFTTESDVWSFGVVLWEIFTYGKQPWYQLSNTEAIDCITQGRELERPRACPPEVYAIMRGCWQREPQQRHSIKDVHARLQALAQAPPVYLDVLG

On to `CSc1ccc(F)cc1[C@H]1CCCN1c1ccc2ncc(/C(=N/C#N)N[C@H]3CCCOC3)n2n1` [Example 2, (Z)-N′-cyano-6-[(2R)-2-[5-fluoro-2-(methylsulfanyl)phenyl]pyrrolidin-1-yl]-N-[(3S)-oxan-3-yl]imidazo[1,2-b]pyridazine-3-carboximidamide], for which the IC50 on TrkA was 1.04 nM; on TrkB it was 0.83 nM; at TrkC it was 1.78 nM.
As for `CSc1ccc(F)cc1[C@H]1CCCN1c1ccc2ncc(/C(=N/C#N)N[C@@H]3CCCOC3)n2n1` [Example 1, (Z)-N′-cyano-6-[(2R)-2-[5-fluoro-2-(methylsulfanyl)phenyl]pyrrolidin-1-yl]-N-[(3R)-oxan-3-yl]imidazo[1,2-b]pyridazine-3-carboximidamide], the IC50 at TrkA was found to be 0.95 nM; at TrkB, 0.88 nM; on TrkC, 1.6 nM.
Consider `CSc1ccc(F)cc1[C@H]1CCCN1c1ccc2ncc(/C(=N/C#N)NCc3cccc(O)c3)n2n1` [Example 7, (Z)-N′-cyano-6-[(2R)-2-[5-fluoro-2-(methylsulfanyl)phenyl]pyrrolidin-1-yl]-N-[(3-hydroxyphenyl)methyl]imidazo[1,2-b]pyridazine-3-carboximidamide], for which the IC50 was 1.44 nM on TrkA, 1.55 nM on TrkB and 3.16 nM at TrkC.
As for `CCN/C(=N\C#N)c1cnc2ccc(N3C[C@@H](F)C[C@@H]3c3cc(F)ccc3SC)nn12` [Example 4, (Z)-N′-cyano-N-ethyl-6-[(2R,4S)-4-fluoro-2-[5-fluoro-2-(methylsulfanyl)phenyl]pyrrolidin-1-yl]imidazo[1,2-b]pyridazine-3-carboximidamide], the concentration for half-maximal inhibition (IC50) on TrkA amounted to 0.97 nM; at TrkB, 0.23 nM; at TrkC it was 1 nM.
The like results for `CCN/C(=N\C#N)c1cnc2ccc(N3C[C@@H](F)C[C@@H]3c3cc(F)cc(SC)c3)nn12` [Example 3, (Z)-N′-cyano-N-ethyl-6-[(2R,4S)-4-fluoro-2-[5-fluoro-3-(methylsulfanyl)phenyl]pyrrolidin-1-yl]imidazo[1,2-b]pyridazine-3-carboximidamide] were, in that order, 1.17 nM, 0.37 nM and 1.53 nM.
In the case of `CSc1ccc(F)cc1[C@H]1C[C@H](F)CN1c1ccc2ncc(/C(=N/C#N)NC3CCCCC3)n2n1` [Example 6, (Z)-N′-cyano-N-cyclohexyl-6-[(2R,4S)-4-fluoro-2-[5-fluoro-2-(methylsulfanyl)phenyl]pyrrolidin-1-yl]imidazo[1,2-b]pyridazine-3-carboximidamide], the values for the IC50 on TrkA, on TrkB and on TrkC were 1.52 nM, 0.7 nM and 1.91 nM, respectively.
Turning to `CCCCN/C(=N\C#N)c1cnc2ccc(N3C[C@@H](F)C[C@@H]3c3cc(F)ccc3SC)nn12` [Example 5, (Z)-N-butyl-N′-cyano-6-[(2R,4S)-4-fluoro-2-[5-fluoro-2-(methylsulfanyl)phenyl]pyrrolidin-1-yl]imidazo[1,2-b]pyridazine-3-carboximidamide], the figures for the IC50 on TrkA, on TrkB and at TrkC were 1.1 nM, 0.41 nM and 1.61 nM, respectively.

As usually defined, the IC50 is the concentration needed to halve the response being measured.

(Values after US20210277008A1, “IMIDAZO[1,2-B]PYRIDAZINE DERIVATIVES AS TRK INHIBITORS” (BenevolentAI Bio Limited, priority 2018, published 2021).)
